The values below come from US8299100B2, “Potent and selective neuronal nitric oxide synthase inhibitors with improved membrane permeability” (Northwestern University, priority 2009, dated 2012).

The target of one data set is nNOS (Rattus norvegicus, UniProt P29476). The data set can be described thus: cell-based assay of inhibitor potency (membrane permeability). The following applies: for IC50: Table 3, cell-based assay; for increase in cell membrane permeation: relative to 1, from IC50/IC50(cell).
Another data set addresses rat nNOS (Rattus norvegicus, UniProt P29476). The data set can be described thus: NOS hemoglobin capture assay, purified recombinant enzyme (nNOS).
The target of a further data set is bovine eNOS (Bos taurus, UniProt P29473). The data set can be described thus: NOS hemoglobin capture assay, purified recombinant enzyme (eNOS). The following applies: for selectivity n/e: ratio of Ki (eNOS) to Ki (nNOS).
The target in a further data set is murine macrophage iNOS (Mus musculus, UniProt P29477). The data set can be described thus: NOS hemoglobin capture assay, purified recombinant enzyme (iNOS). The following applies: for selectivity n/i: ratio of Ki (iNOS) to Ki (nNOS).
Where [1] appears, read: read-out: Ki nNOS, Table 4, Ki calculated from measured IC50, 10 μM L-arginine.

One may read the IC50 as the concentration needed to halve the response being measured. The Ki is a measure of affinity in units of concentration, obtained from inhibition or displacement.

The structures appear in SMILES notation. Where two headings read alike, the source gives them in different places.

Method for bovine eNOS: (§1) The three isozymes were recombinant enzymes, which were overexpressed (in E. coli) and isolated as reported. The formation of nitric oxide was measured using a hemoglobin capture assay described previously.
(§2) The three isozymes were recombinant enzymes, which were overexpressed (in E. coli) and isolated as reported. The formation of nitric oxide was measured using a hemoglobin capture assay described previously. […] The corresponding Ki values of inhibitors were calculated from the IC50 values using equation 1 with known Km values, as above.
Method for murine macrophage iNOS: as §1, §2
Method for rat nNOS: as §1, §2

With `Cc1cc(N)nc(CC2CNCC2OCCNCC(F)(F)c2cccc(F)c2)c1` [Compound 2d, 6-(((3S,4S)/(3R,4R)-4-(2-(2,2-Difluoro-2-(3-fluorophenypethylamino)ethoxy)pyrrolidin-3-yemethyl)-4-methylpyridin-2-amine], the IC50 against nNOS is 19 µM; on rat nNOS (Table 3, purified enzyme assay (nNOS)) it was 0.7 µM. Further, the “increase in cell membrane permeation” value on nNOS amounted to 2.0 fold. Further, the Ki on rat nNOS (read-out: Ki nNOS, Table 2, Ki calculated from measured IC50, 10 μM L-arginine) is 0.08 µM; at rat nNOS (setting [1]) it was 0.08 µM. Further, at rat nNOS (relative to 2c), the “drop in potency (nNOS)” value is on record as 2.2 fold.
In the case of `Cc1cc(N)nc(CC2CNCC2OCCNCC(F)c2cccc(F)c2)c1` [Compound 2c, 6-(((3S,4S)/(3R,4R)-4-(2-(2-Fluoro-2-(3-fluorophenyl)propylamino)ethoxy)pyrrolidin-3-yl)methyl)-4-methylpyridin-2-amine], on nNOS, the IC50 was determined as 10 µM and the “increase in cell membrane permeation” value amounted to 1.7 fold.
On to `Cc1cc(N)nc(CC2CNCC2OCCNC2CC2c2cccc(F)c2)c1` [Compound 2b, 6-(((3S,4S)/(3R,4R)-4-(2-(2-(3-Fluorophenyl)cyclopropylamino)ethoxy)pyrrolidin-3-yl)methyl)-4-methylpyridin-2-amine], for which the 50% inhibitory concentration (IC50) against nNOS stood at 9 µM; at rat nNOS, 0.4 µM. Also, on nNOS (ratio of purified nNOS IC50 to cell-based IC50, indicates relative membrane permeability), the “IC50/IC50(cell) × 10^−2” value is 4.4 × 10^−2. In addition, at nNOS, the “increase in cell membrane permeation” value is listed as 2.4 fold. Moreover, the Ki at rat nNOS came to 0.046 µM; on bovine eNOS, 68 µM; on murine macrophage iNOS, 11 µM. Also, the selectivity n/e on bovine eNOS (Table 2) came to 1500. Further, the selectivity n/i at murine macrophage iNOS (Table 2) came to 220.
Turning to `Cc1cc(N)nc(C[C@@H]2CNC[C@@H]2OCCNCC(F)(F)c2ccccc2)c1` [Compound 2dd], the inhibition constant Ki at rat nNOS stood at 0.085 µM; on murine macrophage iNOS, 85 µM.
For the compound `Cc1cc(N)nc(C[C@@H]2CNC[C@@H]2OCCNCC(F)(F)c2ccc(F)cc2)c1` [Compound 2dc], the “loss of potency (nNOS)” value at rat nNOS (compared to 2db) came out at 4.5 fold. The Ki on rat nNOS (setting [1]) was 0.16 µM; on bovine eNOS (read-out: Ki eNOS, Table 4, Ki calculated from measured IC50, 10 μM L-arginine) it was 31 µM; at murine macrophage iNOS (read-out: Ki iNOS, Table 4, Ki calculated from measured IC50, 10 μM L-arginine), 190 µM. Further, the selectivity n/e at bovine eNOS (Table 4) is 190. On murine macrophage iNOS (Table 4), the selectivity n/i was 1200.
With `Cc1cc(N)nc(C[C@H]2CNC[C@H]2OCCNCC(F)(F)C2CCCCN2)c1` (stereo partly drawn) [Compound 2f], the Ki at rat nNOS worked out at 2.7 µM; on bovine eNOS, 64 µM; at murine macrophage iNOS it was 450 µM. Moreover, the selectivity n/e at bovine eNOS (Table 4) is 24. Also, on murine macrophage iNOS (Table 4), the selectivity n/i is recorded as 170.
Consider `Cc1cc(N)nc(C[C@H]2CNC[C@H]2OCCNCC(F)(F)c2cccc(F)c2)c1` [Compound 2da], for which the results for the inhibition constant (Ki) at rat nNOS, on bovine eNOS and at murine macrophage iNOS were 0.39 µM, 110 µM and 130 µM, respectively. Besides, the “loss of potency (nNOS)” value at rat nNOS (compared to racemic 2d) was “five-fold less potent”.
Turning to `CC1CC(N)=NC(C[C@@H]2CNC[C@@H]2OCCNCC(F)(F)c2ccccc2)C1` (stereo partly drawn) [Compound 2e], the inhibitory constant (Ki) is 0.17 µM at rat nNOS, 130 µM on bovine eNOS and 26 µM on murine macrophage iNOS. The “drop in potency against nNOS” value at rat nNOS (compared to 2dd) was found to be 2 fold. Besides, the selectivity n/e at bovine eNOS (Table 4) came out at 770. The selectivity n/i on murine macrophage iNOS (Table 4) was 150. In addition, on murine macrophage iNOS (compared to 2dd), the “better binding to iNOS” value is “more than 3 fold”.
As to `Cc1cc(N)nc(C[C@@H]2CNC[C@@H]2OCCNCC(F)(F)c2cccc(F)c2)c1` [Compound 2db], the inhibition constant Ki on rat nNOS turned out to be 0.036 µM; on bovine eNOS, 140 µM; at murine macrophage iNOS, 51 µM. Moreover, on rat nNOS (2db compared to 2da), the “lower Ki (nNOS)” value was 10 fold.
